US20250059220A1, “SUBSTITUTED BENZOTHIOPHENE DERIVATIVES AND METHODS OF USE THEREOF” (Merck Sharp & Dohme LLC, priority 2021, published 2025)

What was measured:
human PTPN1 (1-435) = human PTPN1 (1-435) (Homo sapiens (Human), UniProt P18031); assay: Human PTPN1 Biochemical Assay; details: DiFMUP substrate, read-out: PTP1B IC50
Method in brief: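 Read-out is DiFMUP hydrolysis fluorescence (360 nm excitation, 460 nm emission) after 1 h at room temperature, following 30 min enzyme–compound preincubation.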

human PTPN2 (1-387) = human PTPN2 (1-387) (Homo sapiens (Human), UniProt P17706); assay: Human PTPN2 Biochemical Assay; details: DiFMUP substrate
Method in brief: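 Human PTPN2 (1-387) preincubated 30 min at RT with compound (10-point 3-fold series) in Tris pH 7.4 buffer with 0.5 mM DTT, then DiFMUP substrate added for 1 h at RT. Fluorescence at ex 360/em 460 nm, normalised to no-enzyme and enzyme controls; EC50 from 4-parameter fit.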

Sequence of human PTPN2 (1-387) (P17706 other isoform, or with tags, fused parts or gaps): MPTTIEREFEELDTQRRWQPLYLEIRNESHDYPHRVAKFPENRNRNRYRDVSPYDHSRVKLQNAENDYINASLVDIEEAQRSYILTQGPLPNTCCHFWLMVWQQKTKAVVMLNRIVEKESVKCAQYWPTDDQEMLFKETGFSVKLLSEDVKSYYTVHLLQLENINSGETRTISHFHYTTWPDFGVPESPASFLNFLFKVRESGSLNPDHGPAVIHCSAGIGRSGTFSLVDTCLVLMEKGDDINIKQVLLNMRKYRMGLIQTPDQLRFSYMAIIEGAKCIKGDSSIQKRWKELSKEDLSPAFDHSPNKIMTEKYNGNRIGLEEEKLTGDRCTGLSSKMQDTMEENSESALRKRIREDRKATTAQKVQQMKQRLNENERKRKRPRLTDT
Sequence of human PTPN1 (1-435) (P18031 whole entry): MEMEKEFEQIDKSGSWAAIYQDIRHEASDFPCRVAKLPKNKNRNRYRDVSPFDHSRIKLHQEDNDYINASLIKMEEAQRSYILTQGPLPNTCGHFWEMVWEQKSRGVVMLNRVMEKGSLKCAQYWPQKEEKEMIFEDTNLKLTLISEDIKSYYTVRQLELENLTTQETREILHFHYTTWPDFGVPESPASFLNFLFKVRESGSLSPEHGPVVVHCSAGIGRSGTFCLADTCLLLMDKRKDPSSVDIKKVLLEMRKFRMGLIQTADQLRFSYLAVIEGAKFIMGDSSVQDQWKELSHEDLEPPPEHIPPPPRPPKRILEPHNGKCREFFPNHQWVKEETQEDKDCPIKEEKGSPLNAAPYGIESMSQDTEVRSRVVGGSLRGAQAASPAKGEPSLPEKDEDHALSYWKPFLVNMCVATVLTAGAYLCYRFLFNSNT

Row | IC50 (human PTPN1 (1-435)) [nM] | IC50 (human PTPN2 (1-387)) [nM] | SMILES
1 | 9050 | 7900 | CN1CCCC(NC(=O)c2ccc3sc(C(F)(F)P(=O)(O)O)c(Br)c3c2)C1 (stereo not drawn) [Compound 58]
2 | 5760 | 7440 | CC(=O)N1CCC(CNC(=O)c2ccc3sc(C(F)(F)P(=O)(O)O)c(Br)c3c2)(C(F)(F)F)C1 (stereo not drawn) [Compound 74]
3 | 45.3 | 24.4 | NC(=O)c1cc(OCc2ccc(OC(F)(F)F)cc2)c2sc(C(F)(F)P(=O)(O)O)c(Br)c2c1 [Compound 339]
4 | 53.6 | 63.2 | CC[C@@H]1C[C@H]1COc1cc(C(N)=O)cc2c(Br)c(C(F)(F)P(=O)(O)O)sc12 [Compound 289]
5 | 6440 | 7160 | CC(NC(=O)c1ccc2sc(C(F)(F)P(=O)(O)O)c(Br)c2c1)c1cccnc1 (stereo not drawn) [Compound 35]
6 | 2690 | 4120 | O=C(N[C@@H]1CCC[C@H]1OCc1ccccc1)c1ccc2sc(C(F)(F)P(=O)(O)O)c(Br)c2c1 [Compound 14]
7 | 2080 | 2910 | CC(NC(=O)c1ccc2sc(C(F)(F)P(=O)(O)O)c(Br)c2c1)c1cncnc1 (stereo not drawn) [Compound 138]
8 | 4080 | 5170 | COCCCCNC(=O)c1ccc2sc(C(F)(F)P(=O)(O)O)c(Br)c2c1 [Compound 45]
9 | 7.3 | 6.86 | N#CC1(c2ccc(COc3cc(C(N)=O)cc4c(Br)c(C(F)(F)P(=O)(O)O)sc34)cc2)CC1 [Compound 288]
10 | 18 | 27.8 | CC(F)(F)CCCOc1cc(C(N)=O)cc2c(Br)c(C(F)(F)P(=O)(O)O)sc12 [Compound 281]
11 | 26.1 | 34.2 | CC1CCS(=O)(=O)C1CCOc1cc(C(N)=O)cc2c(Br)c(C(F)(F)P(=O)(O)O)sc12 (single isomer, unassigned) [Compound 394]
12 | 4590 | 6980 | CC(Cn1cncn1)NC(=O)c1ccc2sc(C(F)(F)P(=O)(O)O)c(Br)c2c1 (stereo not drawn) [Compound 145]
13 | 153 | 109 | Cc1c(C(F)(F)P(=O)(O)O)sc2c(OCCCC(C)(C)O)cc(C(N)=O)cc12 [Compound 437]
14 | 40.3 | 24.5 | CS(=O)(=O)CCCOc1cc(C(N)=O)cc2c(C(F)F)c(C(F)(F)P(=O)(O)O)sc12 [Compound 454, ((5-carbamoyl-3-(difluoromethyl)-7-(3-(methylsulfonyl)propoxy)benzo[b]thiophen-2-yl)difluoromethyl)phosphonic acid]
15 | 26.9 | 22 | COc1ccc(COc2cc(C(N)=O)cc3c(Br)c(C(F)(F)P(=O)(O)O)sc23)cc1F [Compound 349]
16 | 183 | 385 | CNC(=O)c1cc(OCCC(C)(F)F)c2sc(C(F)(F)P(=O)(O)O)c(Br)c2c1 [Compound 325]
17 | 2.5 | 2.7 | O=P(O)(O)C(F)(F)c1sc2c(OCCCC(F)(F)F)cc(-c3nnc(C4CC4)[nH]3)cc2c1Br [Compound 418]
18 | 736 | 214 | NC(=O)c1cc(OCc2ccc([C@H]3CC[C@H](C(F)(F)F)CC3)cc2)c2sc(C(F)(F)P(=O)(O)O)c(Br)c2c1 [Compound 400]
19 | 12.7 | 15.5 | CS(=O)(=O)CCCOc1cc(C(N)=O)cc2c(C(F)(F)F)c(C(F)(F)P(=O)(O)O)sc12 [Compound 445, ((5-carbamoyl-7-(3-(methylsulfonyl)propoxy)-3-(trifluoromethyl)benzo[b]thiophen-2-yl)difluoromethyl)phosphonic acid]
20 | 5140 | 6700 | O=C(NC1CCCOC1)c1ccc2sc(C(F)(F)P(=O)(O)O)c(Br)c2c1 (stereo not drawn) [Compound 127]
21 | 6230 | 8500 | N#CCCCCNC(=O)c1ccc2sc(C(F)(F)P(=O)(O)O)c(Br)c2c1 [Compound 46]
22 | 12.5 | 12.1 | NC(=O)c1cc(OCCC2CCNS2(=O)=O)c2sc(C(F)(F)P(=O)(O)O)c(Br)c2c1 (single isomer, unassigned) [Compound 462]
23 | 5.2 | 3.98 | CS(=O)(=O)c1ccc(COc2cc(C(N)=O)cc3c(Br)c(C(F)(F)P(=O)(O)O)sc23)cn1 [Compound 379]
24 | 2390 | 1610 | CC(C)(O)CCCNc1cccc2c(Br)c(C(F)(F)P(=O)(O)O)sc12 [Compound 224]

Row | IC50 (human PTPN1 (1-435)) [nM] | IC50 (human PTPN2 (1-387)) [nM] | SMILES
25 | 251 | 470 | O=C(NCc1c[nH]nn1)c1cc(Cl)c2sc(C(F)(F)P(=O)(O)O)c(Br)c2c1 [Compound 159]
26 | 6.7 | 6.6 | Cc1c(C(F)(F)P(=O)(O)O)sc2c(OCCCS(C)(=O)=O)cc(-c3nc[nH]n3)cc12 [Compound 436]
27 | 3480 | 4320 | O=C(Cc1cccnc1)Nc1ccc2sc(C(F)(F)P(=O)(O)O)c(Br)c2c1 [Compound 214]
28 | 2320 | 3650 | O=C(NCc1cc[nH]n1)c1ccc2sc(C(F)(F)P(=O)(O)O)c(Br)c2c1 [Compound 202]
29 | 4440 | 6140 | CN(C(=O)c1ccc2sc(C(F)(F)P(=O)(O)O)c(Br)c2c1)c1cccc(Oc2ccccc2)c1 [Compound 20]
30 | 1380 | 648 | C[C@@H](NC(=O)c1ccc2sc(C(F)(F)P(=O)(O)O)c(C#N)c2c1)c1cccnn1 [Compound 186]
31 | 3400 | 4240 | N#CC1(CNC(=O)c2ccc3sc(C(F)(F)P(=O)(O)O)c(Br)c3c2)CC1 [Compound 38]
32 | 6410 | 5760 | O=C(Nc1ccccc1)c1ccc2sc(C(F)(F)P(=O)(O)O)c(C(F)F)c2c1 [Compound 216, ((3-(difluoromethyl)-5-(phenylcarbamoyl)benzo[b]thiophen-2-yl)difluoromethyl)phosphonic acid]
33 | 16.4 | 2.5 | NC(=O)c1cc(OCc2ccc(-c3ccccc3)cc2)c2sc(C(F)(F)P(=O)(O)O)c(Br)c2c1 [Compound 346]
34 | 68.1 | 20.5 | CC1(c2ccc(COc3cc(C(N)=O)cc4c(Br)c(C(F)(F)P(=O)(O)O)sc34)cc2)CC1 [Compound 396]
35 | 3130 | 6010 | Cc1cnn(CCNC(=O)c2ccc3sc(C(F)(F)P(=O)(O)O)c(Br)c3c2)c1 [Compound 149]
36 | 52.6 | 34.8 | CS(=O)(=O)CCCCOc1cc(C(N)=O)cc2c(Br)c(C(F)(F)P(=O)(O)O)sc12 [Compound 318]
37 | 5 | 5.56 | O=P(O)(O)C(F)(F)c1sc2c(OCC3CC3(F)F)cc(-c3nc[nH]n3)cc2c1Br (stereo not drawn) [Compound 442]
38 | 4660 | 3740 | O=C(Nc1ccccc1)Nc1ccc2sc(C(F)(F)P(=O)(O)O)c(Br)c2c1 [Compound 219, ((3-bromo-5-(3-phenylureido)benzo[b]thiophen-2-yl)difluoromethyl)phosphonic acid]
39 | 25.1 | 24.1 | CNC(=O)c1cc(OCC2CC2(F)F)c2sc(C(F)(F)P(=O)(O)O)c(Br)c2c1 (stereo not drawn) [Compound 321]
40 | 8100 | 9750 | O=C(N[C@H]1CC(=O)N(C2CC2)C1)c1ccc2sc(C(F)(F)P(=O)(O)O)c(Br)c2c1 [Compound 79]
41 | 153 | 170 | CC1CCS(=O)(=O)C1CCOc1cc(C(N)=O)cc2c(Br)c(C(F)(F)P(=O)(O)O)sc12 (stereo not drawn) [Compound 392]
42 | 2640 | 1870 | O=C(NCc1cn2ccccc2n1)c1ccc2sc(C(F)(F)P(=O)(O)O)c(Br)c2c1 [Compound 142]
43 | < 2.5 | < 2.5 | CS(=O)(=O)c1ccc(COc2cc(-c3nc[nH]n3)cc3c(Br)c(C(F)(F)P(=O)(O)O)sc23)cc1 [Compound 444]
44 | 7250 | 9280 | O=C(Nc1cccnc1Oc1ccccc1)c1ccc2sc(C(F)(F)P(=O)(O)O)c(Br)c2c1 [Compound 23]
45 | 246 | 619 | NC(=O)c1cc(OCCC23CC(C2)C3)c2sc(C(F)(F)P(=O)(O)O)c(Br)c2c1 [Compound 293]
46 | 404 | 630 | O=C(NCc1cnc2[nH]ccc2c1)c1ccc2sc(C(F)(F)P(=O)(O)O)c(Br)c2c1 [Compound 119]
47 | 1790 | 902 | O=C(NCCn1ccc2ccccc21)c1ccc2sc(C(F)(F)P(=O)(O)O)c(Br)c2c1 [Compound 156]

Row | SMILES | IC50 (human PTPN1 (1-435)) [nM] | IC50 (human PTPN2 (1-387)) [nM]
48 | O=P(O)(O)C(F)(F)c1sc2c(OCCCC(F)(F)F)cc(CN3CCOCC3)cc2c1Br [Compound 263, ((3-bromo-5-(morpholinomethyl)-7-(4,4,4-trifluorobutoxy)benzo[b]thiophen-2-yl)difluoromethyl)phosphonic acid] | 386 | 651
49 | C[C@@H](NC(=O)c1ccc2sc(C(F)(F)P(=O)(O)O)c(Br)c2c1)c1ccnn1C [Compound 176] | 2680 | 4720
50 | N#CCc1cc(OCCCC(F)(F)F)c2sc(C(F)(F)P(=O)(O)O)c(Br)c2c1 [Compound 448, ((3-bromo-5-(cyanomethyl)-7-(4,4,4-trifluorobutoxy)benzo[b]thiophen-2-yl)difluoromethyl)phosphonic acid] | 230 | 316
51 | C[C@H](NC(=O)c1ccc2sc(C(F)(F)P(=O)(O)O)c(Br)c2c1)c1ccccn1 [Compound 185] | 3390 | 5200
52 | O=C(NCc1cc(C2CC2)on1)c1ccc2sc(C(F)(F)P(=O)(O)O)c(Br)c2c1 [Compound 189] | 990 | 1320
53 | Cn1nncc1CNC(=O)c1ccc2sc(C(F)(F)P(=O)(O)O)c(Br)c2c1 [Compound 193] | 3140 | 5840
54 | O=P(O)(O)C(F)(F)c1sc2c(OCCCC(F)(F)F)cc(-c3cn[nH]c3)cc2c1Br [Compound 404, ((3-bromo-5-(1H-pyrazol-4-yl)-7-(4,4,4-trifluorobutoxy)benzo[b]thiophen-2-yl)difluoromethyl)phosphonic acid] | 287 | 224
